{"source": "ChEMBL document CHEMBL4619704", "about": "“Structural determinants of affinity and selectivity in the binding of inhibitors to histone deacetylase 6” (Bioorg Med Chem Lett, 2020)", "key": {"[1]": {"molecular_target": "T1, Protein deacetylase HDAC6 (Homo sapiens, UniProt Q9UBN7)", "T1 sequence (Q9UBN7 whole entry)": "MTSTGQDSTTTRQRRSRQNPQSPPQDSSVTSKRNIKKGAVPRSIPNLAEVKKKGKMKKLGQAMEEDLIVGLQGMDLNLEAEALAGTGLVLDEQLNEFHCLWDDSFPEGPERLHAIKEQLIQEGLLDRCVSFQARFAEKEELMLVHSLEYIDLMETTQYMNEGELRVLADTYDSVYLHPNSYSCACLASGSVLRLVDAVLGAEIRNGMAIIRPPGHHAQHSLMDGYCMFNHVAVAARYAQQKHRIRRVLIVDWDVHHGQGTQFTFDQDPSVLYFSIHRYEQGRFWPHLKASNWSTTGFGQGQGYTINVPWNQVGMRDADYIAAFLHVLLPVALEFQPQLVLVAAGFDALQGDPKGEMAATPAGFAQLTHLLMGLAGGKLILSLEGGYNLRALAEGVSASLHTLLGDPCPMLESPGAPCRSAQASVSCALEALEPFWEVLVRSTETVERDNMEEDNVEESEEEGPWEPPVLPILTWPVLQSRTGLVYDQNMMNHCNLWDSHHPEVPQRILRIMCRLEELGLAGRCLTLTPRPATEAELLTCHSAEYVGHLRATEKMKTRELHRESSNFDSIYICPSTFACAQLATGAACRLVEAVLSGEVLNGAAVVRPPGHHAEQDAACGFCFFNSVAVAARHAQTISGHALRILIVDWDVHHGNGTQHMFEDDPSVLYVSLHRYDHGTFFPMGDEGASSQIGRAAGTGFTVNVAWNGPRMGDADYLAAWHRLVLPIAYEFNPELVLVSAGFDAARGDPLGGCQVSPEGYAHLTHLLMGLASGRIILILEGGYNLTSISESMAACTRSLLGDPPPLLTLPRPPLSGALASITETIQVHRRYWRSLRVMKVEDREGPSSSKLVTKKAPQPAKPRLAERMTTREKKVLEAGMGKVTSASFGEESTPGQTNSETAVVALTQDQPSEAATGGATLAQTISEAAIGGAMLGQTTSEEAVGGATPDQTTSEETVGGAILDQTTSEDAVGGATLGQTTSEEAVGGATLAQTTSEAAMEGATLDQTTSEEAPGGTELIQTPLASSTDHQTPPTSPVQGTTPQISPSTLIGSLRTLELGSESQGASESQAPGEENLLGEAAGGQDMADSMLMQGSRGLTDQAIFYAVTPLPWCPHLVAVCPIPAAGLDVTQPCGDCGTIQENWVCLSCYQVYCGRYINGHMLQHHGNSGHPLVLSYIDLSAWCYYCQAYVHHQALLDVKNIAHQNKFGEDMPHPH", "assay": "Inhibition of human HDAC6 (unknown origin)"}, "Histone deacetylase 1 [2]": {"molecular_target": "T2, Histone deacetylase 1 (Homo sapiens, UniProt Q13547)", "T2 sequence (Q13547 whole entry)": "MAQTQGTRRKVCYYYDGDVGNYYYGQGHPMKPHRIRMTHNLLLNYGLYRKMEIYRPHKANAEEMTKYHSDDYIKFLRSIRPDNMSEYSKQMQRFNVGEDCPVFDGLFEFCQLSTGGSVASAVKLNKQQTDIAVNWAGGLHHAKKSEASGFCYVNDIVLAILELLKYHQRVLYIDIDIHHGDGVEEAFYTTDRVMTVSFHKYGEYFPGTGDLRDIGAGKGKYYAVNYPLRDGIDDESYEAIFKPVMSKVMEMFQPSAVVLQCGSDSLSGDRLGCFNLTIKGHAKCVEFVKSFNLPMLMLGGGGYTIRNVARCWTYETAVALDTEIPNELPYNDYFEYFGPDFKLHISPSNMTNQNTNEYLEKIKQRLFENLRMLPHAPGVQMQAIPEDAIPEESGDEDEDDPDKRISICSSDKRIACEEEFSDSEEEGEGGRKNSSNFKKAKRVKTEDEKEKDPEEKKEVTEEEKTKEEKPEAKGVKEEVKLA", "assay": "Inhibition of HDAC1 (unknown origin)"}, "[3]": {"molecular_target": "T1, Protein deacetylase HDAC6", "assay": "Inhibition of HDAC6 (unknown origin) using acetyl-lysine tripeptide as substrate preincubated for 24 hrs followed by substrate addition and measured after 30 mins by microtiter plate reader analysis"}, "Histone deacetylase 1 [4]": {"molecular_target": "T2, Histone deacetylase 1", "assay": "Inhibition of C-terminal Flag-tagged HDAC1 (unknown origin) expressed in HEK293 cells or Sf21 cells using Ac-RHK(Ac)K(Ac)-AMC peptide as substrate measured after 180 mins by fluorescence based assay"}, "Histone deacetylase 1 [5]": {"molecular_target": "T2, Histone deacetylase 1", "assay": "Inhibition of C-terminal Flag-tagged HDAC1 (unknown origin) expressed in HEK293 cells or Sf21 cells using Ac-NH-GGK(Ac)-AMC peptide as substrate measured after 180 mins by fluorescence based assay"}}, "note": "pIC50: −log10 of the molar value.", "data": [{"smiles": "NCCCNCCCCCC(=O)C(F)(F)F", "values": [{"measurement": "pIC50", "setting": "[1]", "value": 5.85}]}, {"smiles": "O=C(NO)c1cnc(NC2(c3ccccc3)CCC(F)(F)CC2)nc1", "values": [{"measurement": "pIC50", "setting": "Histone deacetylase 1 [2]", "value": 6.11}, {"measurement": "pIC50", "setting": "[3]", "value": 8.52}]}, {"smiles": "CN(C)Cc1ccc(S(=O)(=O)n2ccc(/C=C/C(=O)NO)c2)cc1", "note": "[RESMINOSTAT]", "values": [{"measurement": "pIC50", "setting": "Histone deacetylase 1 [4]", "value": 6.06}, {"measurement": "pIC50", "setting": "Histone deacetylase 1 [5]", "value": 7.37}]}]}
